The values below come from publication PMC6764291 (Frontiers in Oncology, 2019).

“Also recorded” adds a separate entry of the source.

One experiment concerns p53. As to the kind of experiment: Western Blot p53 expression, HCT116. Conditions: n ≥ 3. The format is cell-based. Here is the method: (§1) Cells were irradiated using ^137Cs gamma-ray photons at a dose-rate of ~1 Gy/min (Best Theratronics Gammacell® 40Exactor, Springfield, USA).
Whole-cell lysates were prepared according to standard protocols. Protein concentrations were measured using a DeNovix DS-11 spectrophotometer (DeNovix Inc., Wilmington, DE, USA). Samples were separated on 4–12% Bis-Tris SDS gels and transferred to a nitrocellulose membrane (ThermoFisher Scientific, Uppsala, Sweden) by wet-transfer blotting. The membrane was blocked for 1 h in PBS with 5% BSA before incubation with primary antibodies targeting p53, caspase-3, NaK-ATPase and GLB1 (DO-1 (ab1101), ab13847, ab76020 and ab128993, AbCam, Cambridge, UK) and β-actin (A5441, Sigma Aldrich Sweden, Stockholm, Sweden) at 4°C overnight. After washing with PBS with 1% Tween-20, the membrane was incubated with respective and species-specific Horse Radish Peroxidase-labeled secondary antibody (ThermoFisher Scientific, Waltham, MA, USA) and stained with electro-chemiluminescent solution (Immobilon, Millipore, Bedford, USA).
(In general: A western blot detects proteins with antibodies after separation by electrophoresis.)

A further experiment concerns cleaved caspase-3. As to the kind of experiment: Flow cytometry cleaved caspase-3, HCT116. The format is cell-based. Here is the method:
as §1
Cells were collected and fixed in 70% ethanol at 6, 12, 24, 48, 72, and 96 h post-irradiation and stored at −20°C. For cell cycle analyses, 6, 12, 24, and 48 h samples were rehydrated and washed twice with PBS and stained with DAPI (Sigma Aldrich Sweden, Stockholm, Sweden) using 1 μg/ml for 30 min. 24, 48, 72, and 96 h samples were stained with caspase-3 and Noxa (ab13847 (1:500) and ab13654 (1:1,000), AbCam, Cambridge, UK) overnight at 4°C, followed by incubation with fluorescent labeled secondary antibodies for 90 min (ab 1:400) at room temperature. Analyses were performed using a BD LSR Fortessa flow cytometer (Becton Dickinson Biosciences, San Jose, USA). Data analyses for cleaved caspase-3 and Noxa were performed with BD FACSDiVa (Becton Dickinson Biosciences, San Jose, USA), while cell cycle analyses of exclusively viable cells were performed using FlowJo (Becton, Dickinson Biosciences, San Jose, USA). Coefficient of variation (CV) values, were below seven for all samples.
In general terms: In flow cytometry, cells or beads pass a laser one at a time.

For the molecule `CC(=O)N[C@H](C(=O)N[C@@H](CO)C(=O)N[C@@H](Cc1ccccc1)C(=O)N[C@]1(C)CCCCCCC=CCCC[C@@](C)(C(N)=O)NC(=O)[C@H](CC(C)C)NC(=O)[C@H](CC(C)C)NC(=O)[C@H](C)NC(=O)[C@H](Cc2c[nH]c3ccccc23)NC(=O)[C@H](Cc2ccc(O)cc2)NC(=O)[C@H](CCC(=O)O)NC1=O)[C@@H](C)O` [PM2], the p53 expression entry with p53 (20 μM PM2, 24 h) is reported as “increased expression of p53”. Besides, the “p53 expression, combination versus PM2 alone” value in the experiment on p53 (2 Gy + 20 μM PM2, 24 h) is “significant increase; also recorded: further increased wt p53 levels”. Besides, the “cleaved caspase-3 expression” value with cleaved caspase-3 (20 μM PM2, 72 h) is given as “distinct increases”. In addition, the “cleaved caspase-3 increase compared to controls” value in the experiment on cleaved caspase-3 (20 μM PM2-treated, peak at 96 h, n ≥ 3) is given as 10 fold.
